In patent US4431664A, “Compound with antiulcerogenic activity, process for the preparation thereof and pharmaceutical composition therefrom” (Ausonia Farmaceutici s.r.l., priority 1981, dated 1984):

Test system: mouse
Experiment: Toxicity by single intraperitoneal administration, LD50 (Litchfield and Wilcoxon)
Format: in vivo
Conditions: i.p., in words
Source text: The toxicity of AP 880 by single administration has been studied in comparison with the toxicity of ranitidine in mouse, by administration of larger and larger doses of compound (I) by the intraperitoneal route. The LD50 values, determined according to the method of Litchfield and Wilcoxon (J. Pharm. Exp. Ther. 96-99, (1949)) are reported in the following Table: […]

CN(C)Cc1ccc(CSCCNC(=C[N+](=O)[O-])NCc2ccc3c(c2)OCO3)o1 [AP 880, N-(2-(((5-(dimethylamino)-methyl-2-furanyl)-methyl)-thio)-ethyl)-N'-(3,4-methylenedioxybenzyl)-2-nitro-1,1-ethendiamine]
toxicity with respect to ranitidine: substantially lower toxicity
